For one series, the system named is E. coli (BW25113). Kind of series: 50% growth inhibitory concentration (IC50) determination assay, E. coli. Conditions: Escherichia coli, growth inhibition, Iso-Sensitest broth, OD 600 nm over 16 h, 35±2° C., read-out: IC50 (μM) E. coli K12 BW25113. Format: cell-based. As for the experimental part: (§1) The in vitro antimicrobial activity of the compounds against E. coli (BW25113, obtained from Coli Genetic Stock Center, #7636) and K. pneumoniae (ATCC10031) was determined according to the following procedure:
(§2) The assay used a 10-points Iso-Sensitest broth medium to measure quantitatively the in vitro activity of the compounds against E. coli BW25113 and K. pneumoniae ATCC 10031.
(§3) Stock compounds in DMSO were serially two-fold diluted (range from 50 to 0.097 μM final concentration) in 384 wells microtiter plates and inoculated with 49 μL the bacterial suspension in Iso-Sensitest broth medium to have a final cell concentration of ˜5×10^5 CFU/mL in a final volume/well of 50 μL/well. Microtiter plates were incubated at 35±2° C.
(§4) Bacterial cell growth was determined with the measurement of optical density at k=600 nm each 20 minutes over a time course of 16 h.
(§5) Growth inhibition was calculated during the logarithmic growth of the bacterial cells with determination of the concentration inhibiting 50% (IC50) of the growth.

Series [1] concerns K. pneumoniae (ATCC10031). Description: 50% growth inhibitory concentration (IC50) determination assay, K. pneumoniae. Format: cell-based. The following applies: Klebsiella pneumoniae, growth inhibition, Iso-Sensitest broth, OD 600 nm over 16 h, * = detection limit. The protocol:
as §1, §2, §3, §4, §5

Another series deals with E. coli (ATCC 25922). Kind of series: Minimal Inhibitory Concentration (MIC) assay. The following applies: Escherichia coli, read-out: MIC (μg/mL) E. coli ATCC 25922. The series is classed as cell-based. The protocol: The in vitro potency of compounds to inhibit E. coli (ATCC 25922) growth was assessed by MIC (Minimal Inhibitory Concentration) assay. Samples were prepared from 10 mM DMSO stock solutions. After serial 2-fold dilution in DMSO in a master plate (Greiner, Cat No: 651201), 180 μL sterile distilled water was added to 20 μL each aliquot of the samples. Then […], diluted compounds were transferred into a new assay plate (Costar, 3599).
The growth medium […] Mueller Hinton Broth (CAMHB) was prepared by adding the 20 mg per liter CaCl2) and 20 mg per liter MgCl2 into the MHB medium (Jianglai Company, sterilized).
Vials of each of the test microorganisms were maintained frozen in the vapor phase of a liquid nitrogen freezer. Took out the bacteria E. coli ATCC 25922 (KWIKSTIK, 0335K) from liquid nitrogen freezer, thawed it in room temperature, and diluted the bacterial in the CAMHB medium to achieve a final inoculum of 5×10^5 CFU/mL. 90 μL CAMHB with bacteria was dispensed to the assay plate and pipetted 5 times.
Then the assay plates were incubated for 20 hours at 35° C. in ambient air. Following incubation, the MIC (μg/mL), the lowest concentration of drug that inhibits visible growth of the microorganism was read and recorded throw the microscope.

A short description of series [2]: Lyophilisation solubility assay (LYSA). Conditions: aqueous buffer, thermodynamic from solid; 0.05 M phosphate buffer, pH 6.5; * = detection limit. Format: physicochemical. As for the experimental part:
The solubility of compounds of present invention was assessed by LYSA assay. Samples were prepared in duplicate from 10 mM DMSO stock solutions (20 μL) diluted in 30 μL pure DMSO. After evaporation of DMSO with a centrifugal vacuum evaporator, the residue was dissolved in 0.05 M phosphate buffer (150 μL, pH 6.5), stirred for one hour and shook for two hours. After one night, the solution was filtered using a microtiter filter plate. Then the filtrate and its 1/10 dilution were analyzed by HPLC-UV. In addition, a four-point calibration curve was prepared from the 10 mM stock solutions and used for the solubility determination of the compounds.

Where [3] appears, read: ATCC25922, CAMHB, 20 hours at 35° C.

In brackets after ≈: the same amount, converted by molar mass. Like-named read-outs stand apart in the source and are kept apart here.

Broadly, the IC50 is the concentration needed to halve the response being measured. In the case of `CNc1cc(F)c(F)c2c1[nH]c1ncc(-c3cc(C)c4ncc(C(=O)O)c(=O)n4c3)c(N(C)C)c12` [Example 1.02, 7-[4-(Dimethylamino)-5,6-difluoro-8-(methylamino)-9H-pyrido[2,3-b]indol-3-yl]-9-methyl-4-oxo-pyrido[1,2-a]pyrimidine-3-carboxylic acid], the IC50 in the series with E. coli (BW25113) is 0.262 µM; in series [1] it was at most 0.098 µM. The MIC in the series on E. coli (ATCC 25922) (setting [3]) came out at 0.598 µg/mL (≈ 1.25 µM).
The like results for `CNc1cc(F)c(F)c2c1[nH]c1ncc(-c3cc(N4CCOCC4)c4ncc(C(=O)O)c(=O)n4c3)c(N(C)C)c12` [Example 1.06, 7-[4-(Dimethylamino)-5,6-difluoro-8-(methylamino)-9H-pyrido[2,3-b]indol-3-yl]-9-morpholino-4-oxo-pyrido[1,2-a]pyrimidine-3-carboxylic acid] were, in that order, 0.828 µM, 0.187 µM and 0.122 µg/mL (≈ 0.222 µM).
On to `CNc1cc(F)c(F)c2c1[nH]c1ncc(-c3cc(N4CCOCC4)c4ncc(C(=O)O)c(=O)n4c3)c(N3CCCC3)c12` [Example 1.07, 7-[5,6-Difluoro-8-(methylamino)-4-pyrrolidin-1-yl-9H-pyrido[2,3-b]indol-3-yl]-9-morpholino-4-oxo-pyrido[1,2-a]pyrimidine-3-carboxylic acid], for which the IC50 in the series with E. coli (BW25113) came to 0.885 µM; in series [1], 0.319 µM. In the series with E. coli (ATCC 25922) (setting [3]), the MIC came out at 0.0911 µg/mL (≈ 0.158 µM).
One may read the solubility (thermodynamic) as the concentration in solution at equilibrium with solid. `CNc1cc(F)c(F)c2c1[nH]c1ncc(-c3ccc4ncc(C(=O)O)c(=O)n4c3)c(N3CCC4CN(C)CC43)c12` (centres unmarked) [Example 1.08, 7-[5,6-Difluoro-4-(5-methyl-2,3,3a,4,6,6a-hexahydropyrrolo[2,3-c]pyrrol-1-yl)-8-(methylamino)-9H-pyrido[2,3-b]indol-3-yl]-4-oxo-pyrido[1,2-a]pyrimidine-3-carboxylic acid] returned a solubility (thermodynamic) in series [2] of 60 µg/mL (≈ 110 µM).
With `CNc1cc(F)c(F)c2c1[nH]c1ncc(-c3cc(CN(C)C)c4ncc(C(=O)O)c(=O)n4c3)c(N3CCCC3)c12` [Example 1.15, 7-(5,6-Difluoro-8-(methylamino)-4-(pyrrolidin-1-yl)-9H-pyrido[2,3-b]indol-3-yl)-9-((dimethylamino)methyl)-4-oxo-4H-pyrido[1,2-a]pyrimidine-3-carboxylic acid], the IC50 in the series on E. coli (BW25113) is 0.663 µM; in series [1], at most 0.098 µM. Moreover, the MIC in the series with E. coli (ATCC 25922) (setting [3]) was determined as 0.152 µg/mL (≈ 0.278 µM). Moreover, the solubility (thermodynamic) in series [2] amounted to 19 µg/mL (≈ 34.7 µM).
As for `CNc1cc(Cl)cc2c1[nH]c1ncc(-c3ccc4ncc(C(=O)O)c(=O)n4c3)c(N(C)C)c12` [Example 1.16, 7-(6-Chloro-4-(dimethylamino)-8-(methylamino)-9H-pyrido[2,3-b]indol-3-yl)-4-oxo-4H-pyrido[1,2-a]pyrimidine-3-carboxylic acid], the IC50 in the series with E. coli (BW25113) was 1.97 µM; in series [1] it was 0.183 µM. In the series with E. coli (ATCC 25922) (setting [3]), the MIC amounted to 0.169 µg/mL (≈ 0.365 µM).
`CNc1cc(F)c(F)c2c1[nH]c1ncc(-c3ccc4ncc(C(=O)O)c(=O)n4c3)c(N3CCC(CN(C)CC(F)F)C3)c12` (centres unmarked) [Example 1.20, 7-(4-(3-(((2,2-Difluoroethyl)(methyl)amino)methyl)pyrrolidin-1-yl)-5,6-difluoro-8-(methylamino)-9H-pyrido [2,3-b]indol-3-yl)-4-oxo-4H-pyrido[1,2-a]pyrimidine-3-carboxylic acid]: the MIC in the series on E. coli (ATCC 25922) (setting [3]) is 0.0707 µg/mL (≈ 0.118 µM). In series [2], this compound gave a thermodynamic solubility of 165 µg/mL (≈ 276 µM).
Compound `CNc1cc(F)c(F)c2c1[nH]c1ncc(-c3ccc4ncc(C(=O)O)c(=O)n4c3)c(N3CC(CN(C)C)C(F)(F)C3)c12` (centres unmarked) [Example 1.22, 7-[4-[4-[(dimethylamino)methyl]-3,3-difluoro-pyrrolidin-1-yl]-5,6-difluoro-8-(methylamino)-9H-pyrido[2,3-b]indol-3-yl]-4-oxo-pyrido[1,2-a]pyrimidine-3-carboxylic acid] gave a solubility (thermodynamic) in series [2] of 65 µg/mL (≈ 111 µM).
For the compound `CNc1cc(F)c(Cl)c2c1[nH]c1ncc(-c3ccc4ncc(C(=O)O)c(=O)n4c3)c(N(C)C)c12` [Example 1.23, 7-(5-Chloro-4-(dimethylamino)-6-fluoro-8-(methylamino)-9H-pyrido[2,3-b]indol-3-yl)-4-oxo-4H-pyrido[1,2-a]pyrimidine-3-carboxylic acid], the IC50 in the series with E. coli (BW25113) is 0.458 µM; in series [1], at most 0.098 µM. The MIC in the series on E. coli (ATCC 25922) (setting [3]) stood at 0.0871 µg/mL (≈ 0.181 µM).
On to `CNc1cc(F)cc2c1[nH]c1ncc(-c3ccc4ncc(C(=O)O)c(=O)n4c3)c(N3CCC(c4ccccc4)C3)c12` (centres unmarked) [Example 1.25, 7-(6-Fluoro-8-(methylamino)-4-(3-phenylpyrrolidin-1-yl)-9H-pyrido[2,3-b]indol-3-yl)-4-oxo-4H-pyrido[1,2-a]pyrimidine-3-carboxylic acid], for which the MIC with E. coli (ATCC 25922) (setting [3]) came out at 0.697 µg/mL (≈ 1.27 µM).
For `CNc1c(F)c(F)cc2c1[nH]c1ncc(-c3ccc4ncc(C(=O)O)c(=O)n4c3)c(N3CC[C@@H](N(C)C)C3)c12` [Example 1.27, (R)-7-(4-(3-(Dimethylamino)pyrrolidin-1-yl)-6,7-difluoro-8-(methylamino)-9H-pyrido[2,3-b]indol-3-yl)-4-oxo-4H-pyrido[1,2-a]pyrimidine-3-carboxylic acid], in the series on E. coli (ATCC 25922) (setting [3]), the MIC came out at 0.759 µg/mL (≈ 1.42 µM). The same compound displayed a solubility (thermodynamic) in series [2] of 31 µg/mL (≈ 58.1 µM).
In the case of `CNc1cc(F)c(F)c2c1[nH]c1ncc(-c3ccc4ncc(C(=O)O)c(=O)n4c3)c(N3CCN4CCOCC4C3)c12` (centres unmarked) [Example 1.28, 7-(5,6-Difluoro-4-(hexahydropyrazino[2,1-c][1,4]oxazin-8(1H)-yl)-8-(methylamino)-9H-pyrido[2,3-b]indol-3-yl)-4-oxo-4H-pyrido[1,2-a]pyrimidine-3-carboxylic acid compound with formic acid], the MIC with E. coli (ATCC 25922) (ATCC25922, 20 h) is 0.356 µg/mL (≈ 0.634 µM).
As for `CNc1cc(F)c(F)c2c1[nH]c1ncc(-c3cc(N4CCOCC4)c4ncc(C(=O)O)c(=O)n4c3)c(N(C)C)c12` [Example 1.32, 7-[4-(Dimethylamino)-5,6-difluoro-8-(methylamino)-9H-pyrido[2,3-b]indol-3-yl]-9-morpholino-4-oxo-pyrido[1,2-a]pyrimidine-3-carboxylic acid], the solubility (thermodynamic) in series [2] is 43 µg/mL (≈ 78.2 µM).
For `CNc1cc(F)c(F)c2c1[nH]c1ncc(-c3cc(C)c4ncc(C(=O)O)c(=O)n4c3)c(N3CCC4CN(C)CC43)c12` (centres unmarked) [Example 1.33, 7-[5,6-Difluoro-4-(5-methyl-2,3,3a,4,6,6a-hexahydropyrrolo[2,3-c]pyrrol-1-yl)-8-(methylamino)-9H-pyrido[2,3-b]indol-3-yl]-9-methyl-4-oxo-pyrido[1,2-a]pyrimidine-3-carboxylic acid], the MIC in the series with E. coli (ATCC 25922) (setting [3]) was 0.164 µg/mL (≈ 0.293 µM). Besides, the thermodynamic solubility in series [2] was determined as 275 µg/mL (≈ 491 µM).
As to `CNc1cc(F)c(F)c2c1[nH]c1ncc(-c3cc(CN4CCC5CN(C)CC54)c4ncc(C(=O)O)c(=O)n4c3)c(N(C)C)c12` (centres unmarked) [Example 2.06, 7-[4-(Dimethylamino)-5,6-difluoro-8-(methylamino)-9H-pyrido[2,3-b]indol-3-yl]-9-[(5-methyl-2,3,3a,4,6,6a-hexahydropyrrolo[2,3-c]pyrrol-1-yl)methyl]-4-oxo-pyrido[1,2-a]pyrimidine-3-carboxylic acid], the MIC with E. coli (ATCC 25922) (setting [3]) stood at 0.84 µg/mL (≈ 1.39 µM). Further, the thermodynamic solubility in series [2] was over 840 µg/mL.
`CNc1cc(F)c(F)c2c1[nH]c1ncc(-c3cc(C)c4ncc(C(=O)O)c(=O)n4c3)c(C3CC3)c12` [Example 3.01, 7-[4-Cyclopropyl-5,6-difluoro-8-(methylamino)-9H-pyrido[2,3-b]indol-3-yl]-9-methyl-4-oxo-pyrido[1,2-a]pyrimidine-3-carboxylic Acid]: the IC50 came out at 0.808 µM in the series with E. coli (BW25113) and 0.11 µM in series [1]. Further, the MIC with E. coli (ATCC 25922) (setting [3]) was 0.594 µg/mL (≈ 1.25 µM).

The record behind these values is patent US20210317141A1, “OXOPYRIDO[1,2-A]PYRIMIDINE COMPOUNDS FOR THE TREATMENT AND PROPHYLAXIS OF BACTERIAL INFECTION” (Hoffmann-La Roche Inc., priority 2018, published 2021).
